Experimental findings from ChEMBL document CHEMBL1123662, “Preparation, receptor binding, and fluorescence properties of hexestrol-fluorophore conjugates: evaluation of site of attachment, fluorophore structure, and fluorophore-ligand spacing” (J Med Chem, 1987) are described below.

This experiment in a line: Estrogen receptor binding affinity using [3H]estradiol in a competitive radioreceptor binding assay.
`CCC(c1ccc(O)cc1)C(CC)c1ccc(O)c(CCCNc2ccc([N+](=O)[O-])c3nonc23)c1` (stereo unspecified) had a relative binding affinity (RBA) of 1.5.

The compound `CCC(c1ccc(O)cc1)C(COCCOCCCl)c1ccc(O)cc1` (stereo unspecified) had a relative binding affinity (RBA) of 6.7.

Turning to `CCC(c1ccc(O)cc1)C(CSCCCCCCNc1ccc([N+](=O)[O-])c2nonc12)c1ccc(O)cc1` (stereo unspecified), the relative binding affinity (RBA) is 2.9.

Compound `CCC(c1ccc(O)cc1)C(CSCCCCCCCNc1ccc([N+](=O)[O-])c2nonc12)c1ccc(O)cc1` (stereo unspecified) gave a relative binding affinity (RBA) of 3.4.

As to `CCC(c1ccc(O)cc1)C(CSCCNc1ccc([N+](=O)[O-])c2nonc12)c1ccc(O)cc1` (stereo unspecified), the relative binding affinity (RBA) came to 0.85.

Regarding `CCC(c1ccc(O)cc1)C(CC)c1ccc(O)c(CCCOCc2ccccc2)c1` (stereo unspecified), the relative binding affinity (RBA) is 5.

Compound `CCC(c1ccc(O)cc1)C(CCO)c1ccc(O)cc1` (stereo unspecified) had a relative binding affinity (RBA) of 16.2.

For the compound `CCC(c1ccc(O)cc1)C(CSCCCCCNc1ccc([N+](=O)[O-])c2nonc12)c1ccc(O)cc1` (stereo unspecified), the relative binding affinity (RBA) was 3.5.

Regarding `CCC(c1ccc(O)cc1)C(CSCCCNc1ccc([N+](=O)[O-])c2nonc12)c1ccc(O)cc1` (stereo unspecified), the relative binding affinity (RBA) worked out at 4.3.

For the compound `CCCCSCCC(c1ccc(O)cc1)C(CC)c1ccc(O)cc1` (stereo unspecified), the relative binding affinity (RBA) came out at 23.4.

In turn, `CCC(c1ccc(O)cc1)C(C(=O)OC)c1ccc(O)cc1` (stereo unspecified) gave a relative binding affinity (RBA) of 69.

Consider `CCC(c1ccc(O)cc1)C(CSCCCCNc1ccc([N+](=O)[O-])c2nonc12)c1ccc(O)cc1` (stereo unspecified), for which the relative binding affinity (RBA) was 3.9.

As to `CCC(c1ccc(O)cc1)C(CC)c1ccc(O)c(CCCN2C(=O)c3ccccc3C2=O)c1` (stereo unspecified), the relative binding affinity (RBA) was found to be 5.4.

`CCC(c1ccc(O)cc1)C(CC)c1ccc(O)c(CCCNc2ccc([N+](=O)[O-])cc2[N+](=O)[O-])c1` (stereo unspecified) returned a relative binding affinity (RBA) of 1.

`CCCCCOC(=O)C(c1ccc(O)cc1)C(CC)c1ccc(O)cc1` (stereo unspecified) returned a relative binding affinity (RBA) of 39.

Consider `CCCCCOC(=O)CC(c1ccc(O)cc1)C(CC)c1ccc(O)cc1` (stereo unspecified), for which the relative binding affinity (RBA) stood at 4.2.

With `CCC(c1ccc(O)cc1)C(CC(=O)OC)c1ccc(O)cc1` (stereo unspecified), the relative binding affinity (RBA) turned out to be 20.

`CCC(c1ccc(O)cc1)C(CC)c1ccc(O)c(CCCOC)c1` (stereo unspecified): the relative binding affinity (RBA) is 13.2.

The compound `CCC(c1ccc(O)cc1)C(CI)c1ccc(O)cc1` (stereo unspecified) gave a relative binding affinity (RBA) of 172.

`CCC(c1ccc(O)cc1)C(CC)c1ccc(O)c(CCCO)c1` (stereo unspecified) came in with a relative binding affinity (RBA) of 12.

The compound `C=CCc1cc(C(CC)C(CC)c2ccc(O)cc2)ccc1O` (stereo unspecified) had a relative binding affinity (RBA) of 54.

In turn, `CCC(c1ccc(O)cc1)C(CSCCCCCCCN1C(=O)c2ccccc2C1=O)c1ccc(O)cc1` (stereo unspecified) gave a relative binding affinity (RBA) of 1.6.

Take `CCC(c1ccc(O)cc1)C(CC)c1ccc(O)c(I)c1` (stereo unspecified): the relative binding affinity (RBA) was found to be 37.

In turn, `CCC(c1ccc(O)cc1)C(CCOCCOCCCl)c1ccc(O)cc1` (stereo unspecified) returned a relative binding affinity (RBA) of 16.6.

`CCC(c1ccc(O)cc1)C(CC)c1ccc(O)c(N=[N+]=[N-])c1` (stereo unspecified): the relative binding affinity (RBA) worked out at 69.

As for `CCCCSCC(c1ccc(O)cc1)C(CC)c1ccc(O)cc1` (stereo unspecified), the relative binding affinity (RBA) was 61.6.

The compound `CCC(c1ccc(O)cc1)C(CCI)c1ccc(O)cc1` (stereo unspecified) returned a relative binding affinity (RBA) of 60.

Turning to `CCC(c1ccc(O)cc1)C(C)c1ccc(O)cc1` (stereo unspecified), the relative binding affinity (RBA) came out at 133.

`CCC(c1ccc(O)cc1)C(CC)c1ccc(O)c(CCCOc2ccc([N+](=O)[O-])cc2[N+](=O)[O-])c1` (stereo unspecified) showed a relative binding affinity (RBA) of 1.7.

Consider `CCC(c1ccc(O)cc1)C(CC)c1ccc(O)c(CCCNS(=O)(=O)c2cccc3c(N(C)C)cccc23)c1` (stereo unspecified), for which the relative binding affinity (RBA) is 1.3.

Regarding `CCCCSCCCc1cc(C(CC)C(CC)c2ccc(O)cc2)ccc1O` (stereo unspecified), the relative binding affinity (RBA) came out at 3.6.

With `CCC(c1ccc(O)cc1)C(CC)c1ccc(O)c(CCCN2C(=O)c3cccc([N+](=O)[O-])c3C2=O)c1` (stereo unspecified), the relative binding affinity (RBA) worked out at 3.

On to `CCC(c1ccc(O)cc1)C(CSCCCCN1C(=O)c2ccccc2C1=O)c1ccc(O)cc1` (stereo unspecified), for which the relative binding affinity (RBA) was 3.6.

For the compound `CCC(c1ccc(O)cc1)C(CC)c1ccc(O)c(CCCN2C(=O)c3cccc(N)c3C2=O)c1` (stereo unspecified), the relative binding affinity (RBA) came to 7.4.

`CCC(c1ccc(O)cc1)C(CSCCCCCCCNS(=O)(=O)c1cccc2c(N(C)C)cccc12)c1ccc(O)cc1` (stereo unspecified) displayed a relative binding affinity (RBA) of 2.6.

Take `CCC(c1ccc(O)cc1)C(CO)c1ccc(O)cc1` (stereo unspecified): the relative binding affinity (RBA) amounted to 8.9.
